*1 amine or outer side, *2 acyl side, *3 side chain or, on linkers, in order; H or OH if unused. Where a SMILES comes first, the peptide text is derived from it. Bridges are numbered along the chain shown (N, C = ends). [ ]: non-standard residue; d: D form. The star is where a group is joined. ξ: configuration not given here. Achc(trans-4) = O=C([C@H]1CC[C@H](N[*:1])CC1)[*:2]; NMeGABA = CN(CCCC(=O)[*:2])[*:1]; X8 = O=C([C@H]1CC[C@H](O)CC1)*; Thr(3ξ) = CC(O)[C@H](N)C(=O)O; Propanoyl(3-OH) = O=C(CCO)*; X10 = O=C(CC[C@@H]1CCCN1)*; ξAoc(2) = CCCCCCC(N)C(=O)O; NH(2-ClPh) = Clc1ccccc1N*; Octanoyl = CCCCCCCC(=O)*; Dab = NCC[C@H](N)C(=O)O; X11 = CC(C)(N)CCC(=O)*; X7 = NC1CCC(C(=O)*)CC1; CO = O=C([*:1])[*:2]; GABA = NCCCC(=O)O; X9 = O=C(CCCCCO)*
What was measured:
Assay in all cases: MIC susceptibility testing, broth microdilution in CaMHB
P. aeruginosa ATCC27853 = type: cell-based, Pseudomonas aeruginosa; conditions: Table 4A, different batches of cation-adjusted Muller-Hinton broth
Description: (§1) To evaluate the potency and spectrum of the compounds, susceptibility testing was performed against four strains of each of the four Gram negative pathogens, Escherichia coli, Pseudomonas aeruginosa, Klebsiella pneumoniae and Acinetobacter baumannii.
(§2) The day before testing, 3 to 4 colonies were picked from fresh Mueller-Hinton Agar (MHA) plate and transferred into 10 mL of Cation adjusted MHB (CaMHB). Cultures were incubated at 37° C. 250 rpm for 18-20 hours before being diluted 100-fold in fresh CaMHB. The subcultures were grown further until the OD600 reached 0.2-0.3 corresponding to […]. The actively growing cultures were diluted 100-fold in fresh medium and used for the inoculum.
(§3) The assays were performed in duplicate.
(§4) Data was obtained under similar conditions to Table 4 except that different batches of cation-adjusted Muller-Hinton broth were used. The MIC values for these compounds are compared with those values obtained for Polymyxin B, Colistin Sulphate, CB-182,804 and NAB739 (as the TFA salt). CB-182,804 is a polymyxin decapeptide derivative with an aryl urea substituent at the N-terminus, which has been claimed to have lower toxicity than Polymyxin B (compound 5 in WO 2010/075416. See page 37). NAB739 has been described previously by Vaara et al.

A. baumannii ATCC19606 = type: cell-based, Acinetobacter baumannii; conditions: Table 4A, different batches of cation-adjusted Muller-Hinton broth
Description: as §1, §2, §3, §4

E. coli ATCC25922 = type: cell-based, Escherichia coli; conditions: Table 4A, different batches of cation-adjusted Muller-Hinton broth
Description: as §1, §2, §3, §4

K. pneumoniae ATCC 4352 = type: cell-based, Klebsiella pneumoniae; conditions: K. pneumoniae ATCC4352; Table 4A, different batches of cation-adjusted Muller-Hinton broth
Description: as §1, §2, §3, §4

MIC (P. aeruginosa ATCC27853) [micrograms/mL] | MIC (A. baumannii ATCC19606) [micrograms/mL] | MIC (E. coli ATCC25922) [micrograms/mL] | MIC (K. pneumoniae ATCC 4352) [micrograms/mL] | SMILES
0.25 | 2 | – | 1 | CCCCCCC(N)C(=O)N[C@H](C(=O)N[C@@H](CCN)C(=O)N[C@H]1CCNC(=O)[C@H](C(C)O)NC(=O)[C@H](CCN)NC(=O)[C@H](CCN)NC(=O)[C@H](CC(C)C)NC(=O)[C@@H](Cc2ccccc2)NC(=O)[C@H](CCN)NC1=O)C(C)O (stereo partly drawn) [Example 35, 2-(R,S)-2-Amino octanoyl polymyxin B nonapeptide] (H-[ξAoc(2)][Thr(3ξ)][Dab][Dab][Dab][dF]L[Dab][Dab][Thr(3ξ)]; lactam 4-C)
0.125 | 16 | 8 | 4 | CC(C)C[C@@H]1NC(=O)[C@@H](Cc2ccccc2)NC(=O)[C@H](CCN)NC(=O)[C@@H](NC(=O)[C@H](CCN)NC(=O)[C@@H](NC(=O)[C@H]2CC[C@H](O)CC2)C(C)O)CCNC(=O)[C@H](C(C)O)NC(=O)[C@H](CCN)NC(=O)[C@H](CCN)NC1=O (stereo partly drawn) [Example 32, trans-4-hydroxycyclohexanecarbonyl polymyxin B nonapeptide] (X8-[Thr(3ξ)][Dab][Dab][Dab][dF]L[Dab][Dab][Thr(3ξ)]; lactam 3-C)
0.5 | >32 | >32 | 4 | CC(C)C[C@@H]1NC(=O)[C@@H](Cc2ccccc2)NC(=O)[C@H](CCN)NC(=O)[C@@H](NC(=O)[C@H](CCN)NC(=O)[C@@H](NC(=O)CCO)C(C)O)CCNC(=O)[C@H](C(C)O)NC(=O)[C@H](CCN)NC(=O)[C@H](CCN)NC1=O (stereo partly shown) [Example 33, 3-Hydroxypropanoyl polymyxin B nonapeptide] ({Propanoyl(3-OH)}-[Thr(3ξ)][Dab][Dab][Dab][dF]L[Dab][Dab][Thr(3ξ)]; lactam 3-C)
<0.06 | 4 | 4 | 0.25 | CC(C)C[C@@H]1NC(=O)[C@@H](Cc2ccccc2)NC(=O)[C@H](CCN)NC(=O)[C@@H](NC(=O)[C@H](CCN)NC(=O)[C@@H](NC(=O)CCC(C)(C)N)C(C)O)CCNC(=O)[C@H](C(C)O)NC(=O)[C@H](CCN)NC(=O)[C@H](CCN)NC1=O (stereo partly shown) [Example 28, 4-Amino-4-methyl pentanoyl polymyxin B nonapeptide] (X11-[Thr(3ξ)][Dab][Dab][Dab][dF]L[Dab][Dab][Thr(3ξ)]; lactam 3-C)
1 | 1 | 2 | 2 | CCCCCCCC(=O)N[C@H](C(=O)N[C@H](CO)C(=O)N[C@H]1CCNC(=O)[C@H]([C@@H](C)O)NC(=O)[C@H](CCN)NC(=O)[C@H](CCN)NC(=O)[C@H](CC(C)C)NC(=O)[C@@H](Cc2ccccc2)NC(=O)[C@H](CCN)NC1=O)[C@@H](C)O [NAB739, reference compound] (Octanoyl-T[dS][Dab][Dab][dF]L[Dab][Dab]T; lactam 3-C; N-terminus assumed)
0.125 | 0.5 | 2 | 0.125 | CC(C)C[C@@H]1NC(=O)[C@@H](Cc2ccccc2)NC(=O)[C@H](CCN)NC(=O)[C@@H](NC(=O)[C@H](CCN)NC(=O)[C@@H](NC(=O)C2CCC(N)CC2)C(C)O)CCNC(=O)[C@H](C(C)O)NC(=O)[C@H](CCN)NC(=O)[C@H](CCN)NC1=O (stereo partly drawn) [Example 27, cis-4-aminocyclohexane carbonyl polymyxin B nonapeptide] (X7-[Thr(3ξ)][Dab][Dab][Dab][dF]L[Dab][Dab][Thr(3ξ)]; lactam 3-C)
0.125 | 8 | 16 | 1 | CC(C)C[C@@H]1NC(=O)[C@@H](Cc2ccccc2)NC(=O)[C@H](CCN)NC(=O)[C@@H](NC(=O)[C@H](CCN)NC(=O)[C@@H](NC(=O)CC[C@@H]2CCCN2)C(C)O)CCNC(=O)[C@H](C(C)O)NC(=O)[C@H](CCN)NC(=O)[C@H](CCN)NC1=O (stereo partly drawn) [Example 30, 3-(S)-(1-pyrrolidin-2-yl)-propionyl polymyxin B nonapeptide] (X10-[Thr(3ξ)][Dab][Dab][Dab][dF]L[Dab][Dab][Thr(3ξ)]; lactam 3-C)

Second part, the compound before the results:

SMILES | MIC (P. aeruginosa ATCC27853) [micrograms/mL] | MIC (A. baumannii ATCC19606) [micrograms/mL] | MIC (E. coli ATCC25922) [micrograms/mL] | MIC (K. pneumoniae ATCC 4352) [micrograms/mL]
CC(C)C[C@@H]1NC(=O)[C@@H](Cc2ccccc2)NC(=O)[C@H](CCN)NC(=O)[C@@H](NC(=O)[C@H](CCN)NC(=O)[C@@H](NC(=O)[C@H]2CC[C@H](N)CC2)C(C)O)CCNC(=O)[C@H](C(C)O)NC(=O)[C@H](CCN)NC(=O)[C@H](CCN)NC1=O (stereo partly drawn) [Example 24, trans-4-aminocyclohexanecarbonyl polymyxin B nonapeptide] ({Achc(trans-4)}-[Thr(3ξ)][Dab][Dab][Dab][dF]L[Dab][Dab][Thr(3ξ)]; lactam 3-C) | 0.125 | 2 | 2 | 0.125
CNCCCC(=O)N[C@H](C(=O)N[C@@H](CCN)C(=O)N[C@H]1CCNC(=O)[C@H](C(C)O)NC(=O)[C@H](CCN)NC(=O)[C@H](CCN)NC(=O)[C@H](CC(C)C)NC(=O)[C@@H](Cc2ccccc2)NC(=O)[C@H](CCN)NC1=O)C(C)O (stereo partly shown) [Example 23, 4-(N-methylamino)-butanoyl polymyxin B nonapeptide] (NMeGABA-[Thr(3ξ)][Dab][Dab][Dab][dF]L[Dab][Dab][Thr(3ξ)]; lactam 3-C) | 0.25 | 8 | 0.5 | 0.5
CC(C)C[C@@H]1NC(=O)[C@@H](Cc2ccccc2)NC(=O)[C@H](CCN)NC(=O)[C@@H](NC(=O)[C@H](CCN)NC(=O)[C@@H](NC(=O)CCCCCO)C(C)O)CCNC(=O)[C@H](C(C)O)NC(=O)[C@H](CCN)NC(=O)[C@H](CCN)NC1=O (stereo partly shown) [Example 21, 6-Hydroxyhexanoyl polymyxin B nonapeptide] (X9-[Thr(3ξ)][Dab][Dab][Dab][dF]L[Dab][Dab][Thr(3ξ)]; lactam 3-C) | 1 | >32 | 32 | 32
CC(C)C[C@@H]1NC(=O)[C@@H](CC(C)C)NC(=O)[C@H](CCN)NC(=O)[C@@H](NC(=O)[C@H](CCN)NC(=O)[C@@H](NC(=O)CCCN)C(C)O)CCNC(=O)[C@H](C(C)O)NC(=O)[C@H](CCN)NC(=O)[C@H](CCN)NC1=O (stereo partly drawn) [Example 25, 4-aminobutanoyl polymyxin E nonapeptide] (H-[GABA][Thr(3ξ)][Dab][Dab][Dab][dL]L[Dab][Dab][Thr(3ξ)]; lactam 4-C) | 4 | 16 | 8 | 4
CC(C)C[C@@H]1NC(=O)[C@@H](Cc2ccccc2)NC(=O)[C@H](CCN)NC(=O)[C@@H](NC(=O)[C@H](CCN)NC(=O)[C@@H](NC(=O)[C@H](CCN)NC(=O)Nc2ccccc2Cl)[C@@H](C)O)CCNC(=O)[C@H]([C@@H](C)O)NC(=O)[C@H](CCN)NC(=O)[C@H](CCN)NC1=O [CB-182,804, reference compound] ({NH(2-ClPh)-CO}-[Dab]T[Dab][Dab][Dab][dF]L[Dab][Dab]T; lactam 4-C; N-terminus assumed) | 1 | 0.5 | 2 | –
